Results: patent publication US9416125B2, “Substituted cycloalkenopyrazoles as BUB1 inhibitors for the treatment of cancer” (BAYER PHARMA AKTIENGESELLSCHAFT, priority 2012, dated 2016)

Assays:
[1] = target: T1, catalytic domain of human Bub1 (amino acids 704-1085) (Homo sapiens, UniProt O43683); test: Bub1 kinase assay (TR-FRET); assay type: biochemical; conditions: 10 μM ATP, 1 μM peptide substrate, median, read-out: Biological Assay 1: Bub1 kinase assay median IC50
T1 construct: catalytic domain of human Bub1 (amino acids 704-1085); His6 (N); made in house; host or cells: Hi5 insect cells
Text: Bub1-inhibitory activities of compounds described in the present invention were quantified using a time-resolved fluorescence energy transfer (TR-FRET) kinase assay which measures phosphorylation of the synthetic peptide Biotin-Ahx-VLLPKKSFAEPG (C-terminus in amide form), purchased from e.g. Biosyntan (Berlin, Germany) by the (recombinant) catalytic domain of human Bub1 (amino acids 704-1085), expressed in Hi5 insect cells with an N-terminal His6-tag and purified by affinity- (Ni-NTA) and size exclusion chromatography.
In a typical assay 11 different concentrations of each compound (0.1 nM, 0.33 nM, 1.1 nM, 3.8 nM, 13 nM, 44 nM, 0.15 μM, 0.51 μM, 1.7 μM, 5.9 μM and 20 μM) were tested in duplicate within the same microtiter plate. To this end, 100-fold concentrated compound solutions (in DMSO) were previously prepared by serial dilution (1:3.4) of 2 mM stocks in a clear low volume 384-well source microtiter plate (Greiner Bio-One, Frickenhausen, Germany), from which 50 nL of compounds were transferred into a black low volume test microtiter plate from the same supplier. Subsequently, 2 μL of Bub1 (the final concentration of Bub1 was adjusted depending on the activity of the enzyme lot in order to be within the linear dynamic range of the assay: typically ˜200 ng/mL were used) in aqueous assay buffer [50 mM Tris/HCl pH 7.5, 10 mM magnesium chloride (MgCl2), 200 mM potassium chloride (KCl), 1.0 mM dithiothreitol (DTT), 0.1 mM sodium ortho-vanadate, 1% (v/v) glycerol, 0.01% (w/v) bovine serum albumine (BSA), 0.005% (v/v) Trition X-100 (Sigma), 1× Complete EDTA-free protease inhibitor mixture (Roche)] were added to the compounds in the test plate and the mixture was incubated for 15 min at 22° C. to allow pre-equilibration of the putative enzyme-inhibitor complexes before the start of the kinase reaction, which was initiated by the addition of 3 μL 1.67-fold concentrated solution (in assay buffer) of adenosine-tri-phosphate (ATP, 10 μM final concentration) and peptide substrate (1 μM final concentration). The resulting mixture (5 μL final volume) was incubated at 22° C. during 60 min, and the reaction was stopped by the addition of 5 μL of an aqueous EDTA-solution (50 mM EDTA, in 100 mM HEPES pH 7.5 and 0.2% (w/v) bovine serum albumin) which also contained the TR-FRET detection reagents (0.2 μM streptavidin-XL665 [Cisbio Bioassays, Codolet, France] and 1 nM anti-phosho-Serine antibody [Merck Millipore, cat. #35-001] and 0.4 nM LANCE EU-W1024 labeled anti-mouse IgG antibody [Perkin-Elmer, product no. AD0077, alternatively a Terbium-cryptate-labeled anti-mouse IgG antibody from Cisbio Bioassays can be used]). The stopped reaction mixture was further incubated 1 h at 22° C. in order to allow the formation of complexes between peptides and detection reagents. Subsequently, the amount of product was evaluated by measurement of the resonance energy transfer from the Eu-chelate-antibody complex recognizing the Phosphoserine residue to the streptavidin-XL665 bound to the biotin moiety of the peptide. To this end, the fluorescence emissions at 620 nm and 665 nm after excitation at 330-350 nm were measured in GTR-FRET plate reader, e.g. a Rubystar or Pherastar (both from BMG Labtechnologies, Offenburg, Germany) or a Viewlux (Perkin-Elmer) and the ratio of the emissions (665 nm/622 nm) was taken as indicator for the amount of phosphorylated substrate. The data were normalised using two sets of (typically 32-) control wells for high- (=enzyme reaction without inhibitor=0%=Minimum inhibition) and low- (=all assay components without enzyme=100%=Maximum inhibition) Bub1 activity. IC50 values were calculated by fitting the normalized inhibition data to a 4-parameter logistic equation (Minimum, Maximum, IC50, Hill; Y=Max+(Min−Max)/(1+(X/IC50)Hill)).

HeLa cell line = test: Proliferation assay (crystal violet staining); assay type: cell-based; conditions: Homo sapiens, 96 h, 4 days incubation, range 0.001-10 μM, median, read-out: Biological Assay 2: Proliferation assay (HeLa cell line) median IC50
Protocol: Cultivated tumor cells (cells were ordered from ATCC, except HeLa-MaTu and HeLa-MaTu-ADR, which were ordered from EPO-GmbH, Berlin) were plated at a density of 1000 to 5000 cells/well, depending on the growth rate of the respective cell line, in a 96-well multititer plate in 200 μL of their respective growth medium supplemented 10% fetal calf serum. After 24 h, the cells of one plate (zero-point plate) were stained with crystal violet (see below), while the medium of the other plates was replaced by fresh culture medium (200 μL), to which the test substances were added in various concentrations (0 μM, as well as in the range of 0.001-10 μM; the final concentration of the solvent DMSO was 0.5%). The cells were incubated for 4 days in the presence of test substances. Cell proliferation was determined by staining the cells with crystal violet: the cells were fixed by adding 20 μL/measuring point of an 11% glutaric aldehyde solution for 15 min at rt. After three washing cycles of the fixed cells with water, the plates were dried at rt. The cells were stained by adding 100 μL/measuring point of a 0.1% crystal violet solution (pH 3.0). After three washing cycles of the stained cells with water, the plates were dried at rt. The dye was dissolved by adding 100 μL/measuring point of a 10% acetic acid solution. Absorbtion was determined by photometry at a wavelength of 595 nm. The change of cell number, in percent, was calculated by normalization of the measured values to the aborbtion values of the zero-point plate (=0%) and the absorbtion of the untreated (0 μm) cells (=100%). The IC50 values were determined by means of a 4 parameter fit.

T1 sequence (O43683 704-1085): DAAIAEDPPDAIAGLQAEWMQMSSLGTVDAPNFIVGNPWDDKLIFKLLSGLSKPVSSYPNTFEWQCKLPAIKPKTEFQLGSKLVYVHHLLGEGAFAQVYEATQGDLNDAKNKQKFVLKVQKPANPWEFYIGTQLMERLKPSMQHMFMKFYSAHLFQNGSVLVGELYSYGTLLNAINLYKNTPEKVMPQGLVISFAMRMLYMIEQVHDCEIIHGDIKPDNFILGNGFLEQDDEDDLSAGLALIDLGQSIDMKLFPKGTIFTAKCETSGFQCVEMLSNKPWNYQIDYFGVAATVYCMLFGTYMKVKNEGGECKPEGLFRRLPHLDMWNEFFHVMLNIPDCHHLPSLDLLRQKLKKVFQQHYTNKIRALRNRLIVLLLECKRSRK

Structure (SMILES)	IC50 [1] [µM]	IC50 (HeLa cell line) [µM]
COc1cnc(-c2nn(Cc3ccccc3F)c3c2CCCC3)nc1Nc1ccncc1 [Example 2-1-2, 2-[1-(2-fluoro-benzyl)-4,5,6,7-tetrahydro-1H-indazol-3-yl]-5-methoxy-N-(pyridin-4-yl)pyrimidin-4-amine]	0.01	≥ 10
COc1ccc(Cn2nc(-c3ncc(OC)c(Nc4ccncc4)n3)c3c2CCC3)cc1 [Example 2-1-3, 5-methoxy-2-[1-(4-methoxy-benzyl)-1,4,5,6-tetrahydrocyclopenta [c]pyrazol-3-yl]-N-(pyridin-4-yl)pyrimidin-4-amine]	0.05	≥ 10
COc1c(N)nc(-c2nn(Cc3ccccc3F)c3c2CCC3)nc1Nc1ccncc1 [Example 2-1-4, 2-[1-(2-fluoro-benzyl)-1,4,5,6-tetrahydrocyclopenta [c]pyrazol-3-yl]-5-methoxy-N-(pyridin-4-yl)pyrimidin-4,6-diamine]	0.09	≥ 10
COc1cnc(-c2nn(Cc3ccccc3F)c3c2CCC3)nc1Nc1ccncc1 [Example 2-1-6, 2-[1-(2-fluoro-benzyl)-1,4,5,6-tetrahydrocyclopenta [c]pyrazol-3-yl]-5-methoxy-N-(pyridin-4-yl)pyrimidin-4-amine]	0.1	≥ 10
COc1cnc(-c2nn(Cc3ccccc3F)c3c2CCC3)nc1Nc1ccncc1C#N [Example 2-1-7, 4-({2-[1-(2-fluoro-benzyl)-1,4,5,6-tetrahydrocyclopenta [c]pyrazol-3-yl]-5-methoxy-pyrimidin-4-yl}amino) nicotinonitrile]	0.2	≥ 10
COc1c(NC(C)=O)nc(-c2nn(Cc3ccccc3F)c3c2CCC3)nc1Nc1ccncc1 [Example 2-1-11, N-{2-[1-(2-fluoro-benzyl)-1,4,5,6-tetrahydrocyclopenta [c]pyrazol-3-yl]-5-methoxy-6-(pyridin-4-ylamino)pyrimidin-4-yl}acetamide]	0.12	
N#Cc1cnccc1Nc1nc(-c2nn(Cc3ccccc3F)c3c2CCC3)ncc1O [Example 2-2-2, 4-({2-[1-(2-fluoro-benzyl)-1,4,5,6-tetrahydrocyclopenta [c]pyrazol-3-yl]-5-hydroxy-pyrimidin-4-yl}amino) nicotinonitrile]	0.07	6

Continued by falling IC50 [1], values first:

IC50 [1] [µM]	IC50 (HeLa cell line) [µM]	Structure (SMILES)
6		COCC(=O)N(c1ccncc1)c1nc(-c2nn(Cc3ccccc3F)c3c2CCC3)nc(N)c1OC [Example 2-12-1, N-{6-amino-2-[1-(2-fluorobenzyl)-1,4,5,6-tetrahydrocyclopenta[c]-pyrazol-3-yl]-5-methoxypyrimidin-4-yl}-2-methoxy-N-(pyridin-4-yl)acetamide]
3		Fc1ccccc1Cn1nc(-c2nc(Nc3ccncc3)c(N3CCOCC3)c(Nc3ccncc3)n2)c2c1CCC2 [Example 2-1-8, 2-[1-(2-fluoro-benzyl)-1,4,5,6-tetrahydrocyclopenta[c]pyrazol-3-yl]-5-(morpholin-4-yl)-N,N′-di(pyridin-4-yl)pyrimidin-4,6-diamine]
0.5		CCOC(=O)c1cnccc1Nc1nc(-c2nn(Cc3ccccc3F)c3c2CCC3)ncc1Oc1ccncc1C(=O)OCC [Example 2-9-1, ethyl 4-[(4-{[3-(ethoxycarbonyl)pyridin-4-yl]amino}-2-[1-(2-fluorobenzyl)-1,4,5,6-tetrahydrocyclopenta[c]pyrazol-3-yl]pyrimidin-5-yl)oxy]nicotinate]
0.3	≥ 10	COCC(=O)Nc1nc(-c2nn(Cc3ccccc3F)c3c2CCC3)nc(Nc2ccncc2)c1OC [Example 2-1-10, N-{2-[1-(2-fluorobenzyl)-1,4,5,6-tetrahydrocyclopenta[c]pyrazol-3-yl]-5-methoxy-6-(pyridin-4-ylamino)pyrimidin-4-yl}-2-methoxyacetamide]
0.3	≥ 10	Oc1cnc(-c2nn(Cc3ccccc3F)c3c2CCC3)nc1Nc1ccncc1 [Example 2-1-13, 2-[1-(2-fluoro-benzyl)-1,4,5,6-tetrahydrocyclopenta [c]pyrazol-3-yl]-4-(pyridin-4-ylamino) pyrimidin-5-ol]
0.2	≥ 10	NC(=O)c1cnccc1Nc1nc(-c2nn(Cc3ccccc3F)c3c2CCC3)ncc1O [Example 2-1-12, 4-({2-[1-(2-fluoro-benzyl)-1,4,5,6-tetrahydrocyclopenta [c]pyrazol-3-yl]-5-hydroxy-pyrimidin-4-yl}amino) nicotinamide]
0.1		Nc1nc(-c2nn(Cc3ccccc3F)c3c2CCC3)nc(Nc2ccncc2)c1N1CCOCC1 [Example 2-1-5, 2-[1-(2-fluoro-benzyl)-1,4,5,6-tetrahydrocyclopenta [c]pyrazol-3-yl]-5-(morpholin-4-yl)-N-(pyridin-4-yl)pyrimidin-4,6-diamine]
0.1		CCOc1cc(F)c(Cn2nc(-c3ncc(OCCO[Si](C)(C)C(C)(C)C)c(Nc4ccncc4)n3)c3c2CCC3)c(F)c1 [Example 2-3-6, 5-(2-{[tert-butyl (dimethyl)silyl]oxy}ethoxy)-2-[1-(4-ethoxy-2,6-difluoro-benzyl)-1,4,5,6-tetrahydrocyclopenta [c]pyrazol-3-yl]-N-(pyridin-4-yl)pyrimidin-4-amine]
0.02	≥ 10	CCOc1cc(F)c(Cn2nc(-c3ncc(O)c(Nc4ccncc4)n3)c3c2CCC3)c(F)c1 [Example 2-2-1, 2-[1-(4-ethoxy-2,6-difluorobenzyl)-1,4,5,6-tetrahydrocyclopenta-[c]pyrazol-3-yl]-4-(pyridin-4-ylamino)pyrimidin-5-ol]
0.02		CSCCOc1cnc(-c2nn(Cc3ccccc3F)c3c2CCC3)nc1Nc1ccncc1C(N)=O [Example 2-3-8, 4-({2-[1-(2-fluoro-benzyl)-1,4,5,6-tetrahydrocyclopenta [c]pyrazol-3-yl]-5-[2-(methyl-sulfanyl)ethoxy]pyrimidin-4-yl}amino) nicotinamide]
0.005	6	CCOc1cc(F)c(Cn2nc(-c3ncc(OC)c(Nc4ccncc4)n3)c3c2CCC3)c(F)c1 [Example 2-1-1, 2-[1-(4-ethoxy-2,6-difluorobenzyl)-1,4,5,6-tetrahydrocyclopenta-[c]pyrazol-3-yl]-5-methoxy-N-(pyridin-4-yl)pyrimidin-4-amine]
